# Data published in patent US9572345B2, “Pesticidal composition in the form of aqueous emulsion” (Sumitomo Chemical Company, Limited, priority 2012, dated 2017).
# Assay: Retention rate of the agriculturally active ingredient after xenon light irradiation (neat film on petri dish)
# Format: physicochemical
# Conditions: xenon light (290 nm cutoff), intensity 0.68 W/m^2 at 340 nm, 8 hours, 35° C.; 5 mg air-dried on glass petri dish; HPLC
# Method: A method for the calculation of a retention rate of the agriculturally active ingredient defined above is more specifically as follows. First, 250 mg of the agriculturally active ingredient is dissolved in 50 ml of a solvent such as acetone, which can sufficiently dissolve the agriculturally active ingredient and also has high volatility, and 1 mL of the solution is added to a glass petri dish having a diameter of 6 cm using a one-mark pipette, spread entirely over the petri dish, and then air-dried at room temperature. The petri dish is covered with a lid made of quartz glass and then set in a weathering tester (manufactured by Q-Lab Corporation under the trade name of Q-SUN Xenon Accelerated Weathering Tester, Model Xe-3) equipped with a borosilicate filter (manufactured by Q-Lab Corporation under the trade name of Daylight-BB Optical Filter) attached thereto. After irradiation with xenon light under the conditions of an intensity at 340 nm of 0.68 W/m^2 and a temperature of 35° C. (35° C. as measured by an insulated black panel thermometer) for 8 hours, the amount of the agriculturally active ingredient remaining on the petri dish is determined by a known determination method such as high-performance liquid chromatography. It is possible to determine a retention rate by calculating as the weight percentage relative to 5 mg of the agriculturally active ingredient used above. […]
smiles,measurement,value
C=CCSC(=O)n1c(N)c(-c2ccccc2C)c(=O)n1C(C)C [fenpyrazamine],retention rate after irradiation with xenon light,28.1%
